Laboratory results: patent publication US11730746B2, “17beta-heterocyclyl-digitalis like compounds for the treatment of heart failure” (priority 2018, dated 2023)

How the values were obtained:
Imidazoline I2, Central = assay: Receptor binding 241000; set-up: species or system rat; details: 10 μM
Description: (§1) Radioligand binding to a panel of receptors was carried out by Eurofins on crude membrane preparations according to published procedures and by using appropriate reference standard (Eurofins, CVie 101 compound code PT #1207859, study #AB76416, quote #68407-1, for Cvie Therapeutics Limited, Taiwan (R.OC.) on Mar. 5, 2017). CVie 101 was tested at the concentration of 10 μM. No significant interaction was documented, except for Sodium Channel, site 2 from rat (cat #279510), where a significant response (≥50%) was noted (Table 7).

HMG-CoA Reductase = target: T1, HMG-CoA Reductase (Homo sapiens, UniProt P04035); assay: Eurofins panel 124010; assay type: biochemical
T1 construct: Eurofins 124010
T1 sequence (P04035 426-888 limits assumed): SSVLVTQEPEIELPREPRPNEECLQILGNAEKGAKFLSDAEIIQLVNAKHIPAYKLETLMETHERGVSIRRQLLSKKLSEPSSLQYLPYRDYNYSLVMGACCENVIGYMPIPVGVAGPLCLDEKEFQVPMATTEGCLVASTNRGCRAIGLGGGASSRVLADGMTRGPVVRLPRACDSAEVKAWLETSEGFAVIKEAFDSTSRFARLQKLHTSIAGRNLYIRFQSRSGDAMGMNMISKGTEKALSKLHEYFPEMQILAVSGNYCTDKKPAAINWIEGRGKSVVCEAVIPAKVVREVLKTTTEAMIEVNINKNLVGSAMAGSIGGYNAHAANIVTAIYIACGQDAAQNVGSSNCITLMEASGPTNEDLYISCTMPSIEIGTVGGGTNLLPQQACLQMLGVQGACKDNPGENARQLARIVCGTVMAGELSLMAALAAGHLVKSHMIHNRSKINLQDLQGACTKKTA

Nicotinic Acetylcholine = assay: Receptor binding 258590; set-up: species or system human; details: 10 μM
Description: as §1

Peptidase, Renin = target: T2, Peptidase, Renin (Homo sapiens, UniProt P00797); assay: Eurofins panel 164610; assay type: biochemical
T2 construct: Eurofins 164610
T2 sequence (P00797 67-406): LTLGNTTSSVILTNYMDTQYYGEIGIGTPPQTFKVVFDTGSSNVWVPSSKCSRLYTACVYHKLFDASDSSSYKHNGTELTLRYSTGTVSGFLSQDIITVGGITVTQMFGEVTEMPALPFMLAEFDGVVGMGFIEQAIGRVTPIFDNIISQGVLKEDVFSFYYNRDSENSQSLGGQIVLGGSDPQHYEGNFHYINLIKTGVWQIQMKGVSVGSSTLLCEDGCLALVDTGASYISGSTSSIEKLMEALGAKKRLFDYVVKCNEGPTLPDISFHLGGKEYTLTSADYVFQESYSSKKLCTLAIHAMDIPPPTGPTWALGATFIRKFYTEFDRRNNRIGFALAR

[1] = target: T3, CYP19 (CYP450, 19; aromatase) (Homo sapiens, UniProt P11511); assay: Eurofins panel 118040; assay type: biochemical; details: crude membrane preparations
T3 construct: Eurofins 118040
T3 sequence (P11511 whole entry): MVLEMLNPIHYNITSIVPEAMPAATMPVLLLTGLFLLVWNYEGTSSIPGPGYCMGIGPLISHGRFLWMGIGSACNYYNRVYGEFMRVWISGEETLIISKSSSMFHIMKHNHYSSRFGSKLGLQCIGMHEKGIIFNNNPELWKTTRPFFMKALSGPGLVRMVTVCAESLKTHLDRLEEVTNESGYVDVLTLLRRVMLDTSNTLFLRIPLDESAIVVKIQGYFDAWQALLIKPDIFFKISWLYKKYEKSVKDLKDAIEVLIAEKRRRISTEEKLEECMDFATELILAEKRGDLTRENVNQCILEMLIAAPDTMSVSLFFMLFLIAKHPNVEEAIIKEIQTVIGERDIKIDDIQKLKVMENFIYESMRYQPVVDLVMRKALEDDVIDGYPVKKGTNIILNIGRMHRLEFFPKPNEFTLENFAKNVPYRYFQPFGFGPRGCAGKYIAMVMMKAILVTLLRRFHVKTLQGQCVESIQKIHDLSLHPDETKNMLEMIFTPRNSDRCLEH
Description: as §1

Adrenergic β1 = target: T4, Adrenergic β1 (Homo sapiens, UniProt P08588); assay: Receptor binding 204010
T4 construct: Eurofins 204010; host or cells: crude membrane preparation
T4 sequence (P08588 whole entry): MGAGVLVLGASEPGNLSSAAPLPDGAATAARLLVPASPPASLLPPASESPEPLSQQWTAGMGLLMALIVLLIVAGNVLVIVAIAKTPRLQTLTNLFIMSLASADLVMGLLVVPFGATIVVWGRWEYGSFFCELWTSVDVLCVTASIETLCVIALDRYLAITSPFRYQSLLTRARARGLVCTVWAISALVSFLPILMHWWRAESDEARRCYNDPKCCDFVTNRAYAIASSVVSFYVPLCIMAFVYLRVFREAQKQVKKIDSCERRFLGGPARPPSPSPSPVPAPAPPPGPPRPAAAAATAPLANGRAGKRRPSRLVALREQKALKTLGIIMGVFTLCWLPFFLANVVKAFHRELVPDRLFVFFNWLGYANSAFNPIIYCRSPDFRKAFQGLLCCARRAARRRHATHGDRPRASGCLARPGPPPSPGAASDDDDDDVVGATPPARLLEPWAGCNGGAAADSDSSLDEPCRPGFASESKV
Description: as §1

Adrenergic α1A = target: T5, Adrenergic α1A (Rattus norvegicus, UniProt P43140); assay: Receptor binding 203100
T5 construct: Eurofins 203100; host or cells: crude membrane preparation
T5 sequence (P43140 whole entry): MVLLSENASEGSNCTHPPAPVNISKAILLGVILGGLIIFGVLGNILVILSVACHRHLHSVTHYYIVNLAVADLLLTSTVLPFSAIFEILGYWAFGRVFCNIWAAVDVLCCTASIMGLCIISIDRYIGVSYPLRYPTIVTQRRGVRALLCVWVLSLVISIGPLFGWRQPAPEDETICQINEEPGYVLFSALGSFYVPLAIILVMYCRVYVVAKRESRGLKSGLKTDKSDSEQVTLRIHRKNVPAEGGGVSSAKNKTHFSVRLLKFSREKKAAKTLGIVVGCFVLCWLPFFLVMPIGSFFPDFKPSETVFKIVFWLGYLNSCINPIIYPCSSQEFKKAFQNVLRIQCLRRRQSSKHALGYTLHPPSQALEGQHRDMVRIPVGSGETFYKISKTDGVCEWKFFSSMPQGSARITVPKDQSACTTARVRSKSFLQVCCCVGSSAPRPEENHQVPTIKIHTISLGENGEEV
Description: as §1

[2] = rats, study i.v. 1 mg/kg and os 10 mg/kg, mean

With C[C@]12CC[C@H](O)C[C@H]1CCC1C2CC[C@]2(C)[C@@H](c3c[nH]cn3)CC[C@]12O (stereo partly drawn) [CVie 101, 3β-hydroxy-5β-10β-methyl-13β-methyl-14β-hydroxy-17β-(imidazol-4-yl)androstane] the “% inhib” value (Imidazoline I2, Central) was 25%, the inhibition at 10 µM (HMG-CoA Reductase) was 7% and the “% inhib” value (Nicotinic Acetylcholine) was 2%. For the same molecule, the AUC(0-inf) (Bioavailability in rats; rat, in vivo, 10 mg/kg) was 2490 ng·h/mL, the AUC(0-t) (Bioavailability in rats; rat, in vivo, 10 mg/kg) was 2430 ng·h/mL and the Cmax (Bioavailability in rats; rat, in vivo, 10 mg/kg) was 1020 ng/mL. For the same molecule, the MRT last (Bioavailability in rats; rat, in vivo, 10 mg/kg) was 2.03 h, the Tmax (Bioavailability in rats; rat, in vivo, 10 mg/kg) was 0.5 h and the half-life (Bioavailability in rats; rat, in vivo, 10 mg/kg) was 2.21 h. For the same molecule, the bioavailability (Bioavailability in rats; rat, in vivo, po, 10 mg/kg) was 66.3%, the Cl_F_pred (Bioavailability in rats; [2]) was 81.3 mL/min/kg and the Vz_F_pred (Bioavailability in rats; [2]) was 14.29 L/kg. For the same molecule, the inhibition at 10 µM (Peptidase, Renin) was 3%, the inhibition at 10 µM [1] was 36% and the inhibition at 10 µM (Adrenergic β1) was -4%. For the same molecule, the inhibition at 10 µM (Adrenergic α1A) was 1%.
